From US20260294870A1, “INDOLE LACTATE FOR THE TREATMENT OF MULTIPLE SCLEROSIS” (The Johns Hopkins University, priority 2023, published 2026)
Entries after “also recorded” stand apart in the source; their conditions may differ.

Tests used:
[1] = system: murine oligodendrocyte precursor cells; assay: Differentiation of murine oligodendrocyte precursor cells (immunocytochemistry, qPCR); format: cell-based, murine (neonatal mice); conditions: for OPC differentiation after PDGF-a withdrawal: PDGF-a withdrawal plus ILA or T3; for OPC differentiation (CC1 expression): compared to control conditions or OPCs treated with PDGF-a
Source text: We tested the effect of several doses of indole lactate on differentiation of oligodendrocyte precursor cells isolated using immune-panning from neonatal mice.

[2] = system: experimental autoimmune encephalomyelitis; assay: Experimental autoimmune encephalomyelitis, indole lactate IP; format: in vivo, Mice (C57/BL6); conditions: for Disease severity (EAE): p<0.0001
Source text: (§1) Mice (C57/BL6, 8-9 week old) were immunized with MOG35-55 peptide and CFA and received IP injection of PTX on day 0 and 2. […] Mice were weighed and scored daily using the following scale (0-normal, 1-limp tail, 2-hind-limb weakness, 3-hind-limb paralysis, 4-fore-limb weakness, 5-death).

[3] = system: experimental autoimmune encephalomyelitis; assay: Experimental autoimmune encephalomyelitis, oral indole lactate; format: in vivo, Mice (C57/BL6); conditions: for severity of EAE: oral, ILA 2 mM in drinking water from day 7 post-immunization, 3 weeks, p<0.0001 vs vehicle
Experimental: as §1
We subsequently performed additional experiments in which we induced EAE using the same paradigm, however at day 7 post-immunization mice were randomized to receive ILA orally in drinking water (ILA 2 mM) or acidified water (adjusted to a similar pH) for the next 3 weeks. At four weeks post-immunization mice were euthanized and tissues were collected and processed for immunohistochemistry. We stained sections of the spinal cord to assess for extent of demyelination and for infiltration of immune cells.
Additionally, we repeated experiments and euthanized mice at the peak of disease to obtain spinal cord tissues for flow cytometric analyses.

[4] = system: Murine MOG specific T cells; assay: T cell proliferation, activation and Th17 polarization by flow cytometry; format: cell-based, murine (2D2 TCR transgenic C57/BL6 mice)
Experimental: Murine MOG specific T cells were isolated and stimulated with […] Th17 polarizing conditions for 72 hours followed by flow-cytometry to analyze viability, proliferation and Th17 polarization in presence of vehicle or varying doses of ILA;
T cells were isolated from spleen and lymph nodes of 2D2 TCR transgenic C57/BL6 mice using negative selection (STEMCELL CD4 T cell isolation kit). T cells were then cultured in c-RPMI with MOG35-55 peptide in the presence of irradiated antigen presenting cells with or without additional cytokines to polarize the cells to a Th17 phenotype for 72 hours and then underwent flow-cytometry to analyze proliferation and Th17 polarization.

macrophages = assay: Nitric oxide production in macrophages; format: cell-based
[5] = system: human embryonic stem cell derived oligodendrocyte precursor cells; assay: Differentiation of human embryonic stem cell derived oligodendrocyte precursor cells (luciferase under MBP promoter); format: cell-based
Source text: We also tested the effect of indole lactate on differentiation of human embryonic stem cell derived oligodendrocyte precursor cells. In this system, the cells produce luciferase under control of the promoter for MBP. Thus, OPC differentiation can be measured using the quantity of luciferase produced by cells.

[6] = system: Cuprizone-induced model of demyelination; assay: Cuprizone-induced model of demyelination, ILA 20 or 40 mg/kg; format: in vivo, Mice; conditions: 0.2% Cuprizone 4 weeks then regular chow one week
Experimental: We tested the ability of indole lactate to promote remyelination in the Cuprizone-induced model of demyelination. Mice were fed with 0.2% Cuprizone for 4 weeks to induce demyelination and then switched to regular chow for one week. At three weeks of Cuprizone feeding mice were randomized to treatment with ILA 20 mg/kg, ILA 40 mg/kg or vehicle for two weeks.

[7] = system: mouse model of demyelination (cuprizone); assay: Cuprizone model of demyelination, oral ILA in drinking water; format: in vivo, mice
Experimental: In subsequent experiments, we fed mice with 0.2% cuprizone for 5 weeks and then randomized them to ILA 2 mM in drinking water or acidified water as a control for 2 weeks. […] These observations provide evidence that oral administration of ILA promotes remyelination in vivo in a mouse model of demyelination.

[8] = system: Arylhydrocarbon Receptor (AhR); assay: CYP1B1 (AhR responsive gene) expression in human ES derived OPCs, quantitative PCR; format: cell-based
Source text: We noted presence of AhR in Olig2+ and PDGFRα+ cells confirming that AhR is present in oligodendrocyte precursor cells. We also obtained RNA from human ES derived OPCs that had been treated with either vehicle or two different doses of ILA for 5 days.

[9] = system: OPCs from wild type (WT) mice; assay: OPC differentiation in OPCs from WT mice; format: cell-based
OPCs from Ahr KO mice = assay: OPC differentiation in OPCs from constitutive Ahr-KO mice; format: cell-based; conditions: listed as ILA
Source text: We further evaluated the mechanism of ILA using OPCs from mice that lack the Ahr gene—constitutive Ahr-KO mice.

human ES derived OPCs = assay: OPC differentiation of human ES derived OPCs with AhR antagonist; format: cell-based; conditions: small molecule AhR antagonist
Source text: We also tested the effects of blocking AhR signaling using a small molecules AhR antagonist.

gut microbiota = assay: Gut microbiota in EAE mice by 16s rRNA sequencing; format: in vivo
Source text: We examined the change in the gut microbiota using 16s rRNA sequencing at baseline, peak of disease and chronic disease in mice receiving ILA or vehicle orally.

[10] = Circulating ILA and IAA levels with oral ILA supplementation; format: in vivo, mice
Source text: FIG. 12A, FIG. 12B, FIG. 12C, FIG. 12D, FIG. 12E, FIG. 12F, FIG. 12G, FIG. 12H, and FIG. 12I show: FIG. 12A. Schematic of product of ILA and IAA and the change in levels with ILA supplementation in naïve mice. FIG. 12B. Clinical scores and plasma ILA and IAA levels at end of experiment in mice on vehicle or oral ILA supplementation. FIG. 12C. Change in ILA/IAA ratio. FIG. 12D. Correlation of ILA/IAA ratio and cumulative EAE score. FIG. 12E. Gut microbiota composition in vehicle and ILA groups at various time points (n=10 each group). FIG. 12F. Change in alpha diversity over the course of EAE.

[11] = spinal cord, four weeks post-immunization, oral ILA 2 mM in drinking water
[12] = spinal cord, peak of disease, oral ILA
[13] = ILA 2 mM in drinking water, 2 weeks, vs vehicle

N[C@@H](Cc1cc(I)c(Oc2ccc(O)c(I)c2)c(I)c1)C(=O)O [T3, reference compound]
OPC differentiation after PDGF-a withdrawal [1]: further potentiated

O=C(O)C(O)Cc1c[nH]c2ccccc12 (stereo not drawn) [indole lactate, indole-3-lactic acid]
disease severity, dose dependence (EAE) ([2]; 10 and 20 mg/kg IP twice daily vs vehicle): significant dose-dependent reduction in disease severity | Disease severity (EAE) ([2]; high-dose (20 mg/kg) IP twice daily vs vehicle): reduced significantly | Disease severity (EAE) ([2]; low-dose (10 mg/kg) IP twice daily vs vehicle): reduced significantly | immune cell infiltration on IHC and flow cytometry analysis ([3]; oral indole lactate vs vehicle): reduction in immune cell infiltration | severity of EAE [3]: reduced significantly | severity of EAE ([3]; listed as ILA): reduced severity of EAE | extent of demyelination on IHC [3, 11]: reduced extent of demyelination | immune cell infiltration on IHC [3, 11]: reduced extent of demyelination and immune cell infiltration | iNOS producing inflammatory macrophages (flow cytometry) [3, 12]: shift towards less iNOS producing inflammatory macrophages | infiltration of T cells and macrophages (flow cytometry) [3, 12]: reduced infiltration of T cells and macrophages | T cell activation ([4]; 72 hours): reduces T cell proliferation, activation | Th17 polarization ([4]; MOG35-55 peptide, Th17 polarizing cytokines, 72 hours, dose-dependent): reduced T cell proliferation and Th17 polarization in a dose-dependent manner | T cell proliferation ([4]; MOG35-55 peptide, irradiated antigen presenting cells, 72 hours, dose-dependent): reduces T cell proliferation; also recorded: reduced T cell proliferation and Th17 polarization in a dose-dependent manner | pro-inflammatory cytokine production from T cells ([4]; in culture): reduces T cell proliferation, activation and pro-inflammatory cytokine production; also recorded: reduced pro-inflammatory cytokine production | production of nitric oxide in macrophages (macrophages): reduced pro-inflammatory cytokine production from T cells in culture and the production of nitric oxide in macrophages | proportion of Olig2 and CC1 double-positive cells ([1]; ILA 150 μM vs vehicle): significantly higher proportion | proportion of Olig2 and CC1 double-positive cells ([1]; ILA 300 μM vs vehicle): significantly higher proportion | expression of MBP (qPCR) ([1]; ILA 300 μM with low dose T3 compared to T3 alone): significantly higher expression | OPC differentiation after PDGF-a withdrawal [1]: further potentiated | OPC differentiation (CC1 expression) [1]: dose-dependent increase in OPC differentiation | OPC differentiation (CC1 expression) ([1]; listed as ILA): increased differentiation of OPCs | oligodendrocyte precursor cell differentiation based on production of luciferase (marker of MBP expression) ([5]; 100 μM): promoted oligodendrocyte precursor cell differentiation | oligodendrocyte precursor cell differentiation based on production of luciferase (marker of MBP expression) ([5]; 300 μM): promoted oligodendrocyte precursor cell differentiation | OPC differentiation measured by Luciferase release ([5]; ILA treatment conditions, dose-dependent): significant increase in OPC differentiation | area of myelination in the corpus callosum (Black Gold staining) ([6]; ILA 20 mg/kg for two weeks): significant increase in area of myelination | area of myelination in the corpus callosum (Black Gold staining) ([6]; ILA 40 mg/kg for two weeks): significant increase in area of myelination | remyelination in the corpus callosum (black gold and fluoromyelin staining) ([7]; ILA 2 mM in drinking water, 2 weeks after 0.2% cuprizone 5 weeks, vs acidified water): significantly increased remyelination | g ratio (scanning EM, corpus callosum) [7, 13]: significantly lower g ratio | proportion of myelinated axons (scanning EM, corpus callosum) [7, 13]: higher proportion of myelinated axons | proportion of remyelinated axons (electron micrographs, corpus callosum) ([7]; oral ILA vs vehicle): higher proportion of remyelinated axons | CYP1B1 expression ([8]; high-dose ILA): CYP1B1 expression increased | expression of CYP1B1 (AhR responsive gene) ([8]; two doses of ILA, 5 days, vs vehicle, dose-response relationship): increased expression of CYP1B1 | OPC differentiation [9]: promoted OPC differentiation | OPC differentiation (pro-differentiation effect of ILA) (OPCs from Ahr KO mice): loss of pro-differentiation effect; also recorded: the effect was lost | effect of AhR antagonist on pro-differentiating effect of ILA (human ES derived OPCs; high doses of ILA): this effect was lost at high doses | pro-differentiating effect of ILA in presence of AhR antagonist (human ES derived OPCs; low doses of ILA, listed as ILA): an AhR inhibitor reverses the effects of ILA on OPC differentiation; also recorded: the AhR antagonist blocked the pro-differentiating effects | acetylene degradation pathway (gut microbiota functional pathway) (gut microbiota; ILA supplementation): reduced acetylene degradation pathway | change in multiple bacteria (abundance) (gut microbiota; oral ILA vs vehicle): differential change in multiple bacteria | overall composition of the gut microbiota (gut microbiota; oral ILA vs vehicle, baseline, peak and chronic disease): change in the overall composition of the gut microbiota | ILA/IAA ratio ([10]; EAE mice): increase in ILA/IAA ratio | circulating ILA levels ([10]; naïve mice): increased circulating ILA levels
